These results are taken from patent publication US8067599B2 (Hoffman-La Roche Inc., priority 2006, dated 2011).

Structures are written as SMILES.

Test [1] concerns the target T1, fusion protein corresponding to mouse Abl (27-end) (Mus musculus, UniProt P00520).
T1 construct: fusion protein corresponding to mouse Abl (27-end)
Kind of test: IC50 determination for inhibitors of Abl kinase (IMAP fluorescence polarization). It counts as biochemical. The conditions noted are these: 22.8 uM ATP, 37° C., 60 minutes; read-out: IC50 Abl kinase inhibition. The protocol: Abl assay was done using fusion protein corresponding to mouse Abl (27-end), fluorescein labeled peptide substrate (with a sequence of EAIYAAPFAKKK) and quantified by Molecular Devices' IMAP fluorescence polarization technology. Compounds were tested in serially diluted concentrations in 384 well plates. Kinase reaction was performed in KAB Buffer (10 mM HEPES, pH 7, 50 mM NaCl, 5 mM MgCl2, 1 mM DTT, 0.1 mM NaVO4, 0.02% BSA), in the presence of 22.8 uM ATP, incubated at 37° C. for 60 minutes. Reaction was stopped by IMAP bead mix (at 1:400 diluted). After incubation at room temperature for 3 hours, the reaction product was analyzed on LJL Acquest (excitation 485 nm and Emission 530 nm).
FP reading (in mP) was used to calculate reaction rate. The assay was semi automated by Tomtec Quadra workstation.

The target of test [2] is T2, mouse full-length Src protein (Mus musculus, UniProt P05480).
T2 construct: mouse full-length Src protein
Briefly: IC50 determination for inhibitors of Src kinase (IMAP fluorescence polarization). It counts as biochemical. Particulars: 24 uM ATP, 37° C., 60 minutes; read-out: IC50 Src kinase inhibition. The protocol:
Src assay was done using mouse full-length Src protein, fluorescein labeled peptide substrate (with a sequence of KVEKIGEGTYGVVYK) and quantified by Molecular Devices' IMAP fluorescence polarization technology. Compounds were tested in serially diluted concentrations in 384 well plates. Kinase reaction was performed in KAB Buffer (10 mM HEPES, pH 7, 50 mM NaCl, 5 mM MgCl2, 1 mM DTT, 0.1 mM NaVO4, 0.02% BSA), in the presence of 24 uM ATP, incubated at 37° C. for 60 minutes. Reaction was stopped by IMAP bead mix (at 1:400 dilution). After incubation at room temperature for 2 hours, the reaction product was analyzed on LJL Acquest (excitation 485 nm and Emission 530 nm).
(§1) FP reading (in mP) was used to calculate reaction rate. The assay was semi-automated by Tomtec Quadra workstation.

The target in test [3] is human recombinant PDGFR beta (Homo sapiens, UniProt P09619). Briefly: IC50 determination for inhibitors of PDGFR kinase (IMAP fluorescence polarization). It counts as biochemical. Particulars: 48 uM ATP, room temperature, 60 minutes, read-out: IC50 PDGFR kinase inhibition. The protocol:
PDGFR assay was carried out with human recombinant PDGFR beta, fluorescein labeled peptide substrate (with a peptide sequence of ALTSNQEYLDLSMPL) and test compounds (in serial dilution) using 384-well plates. Kinase reaction was performed in MOPS buffer (20 mM MOPS pH 7.1, 5 mM Sodium Acetate, 6.25 mM MgCl2, 0.5 mM EDTA, 1 mM DTT, 0.04 mM NaVO4, 0.02% BSA), in the presence of 48 uM ATP, incubated at room temperature for 60 minutes. Reaction was stopped by IMAP Bead Binding System (Molecular Devices). After incubation at room temperature for 2 hours, the reaction product was analyzed on LJL Acquest.
as §1

For the next test, the system named is HCT 116 cells. Kind of test: CellTiter-Glo assay in HCT 116 cells (antiproliferative activity). It counts as cell-based. The conditions noted are these: Homo sapiens, HCT-116, 120 h, cell viability after 5 days. The protocol: The CellTiter-Glo™ Luminescent Cell Viability Assay (Promega) is a homogeneous method of determining the number of viable cells in culture based on quantitation of the ATP present, which signals the presence of metabolically active cells.
HCT 116 cells (human colon carcinoma, ATCC-No. CCl-247) were cultivated in RPMI 1640 medium with GlutaMAX™ 1 (Invitrogen, Cat-No. 61870-010), 5% Fetal Calf Serum (FCS, Sigma Cat-No. F4135 (FBS)); 100 Units/ml penicillin/100 μg/ml streptomycin (=Pen/Strep from Invitrogen Cat. No. 15140). For the assay the cells were seeded in 384 well plates, 1000 cells per well, in the same medium. The next day the test compounds were added in various concentrations ranging from 30 μM to 0.0015 μM (10 concentrations, 1:3 diluted). After 5 days the CellTiter-Glo™ assay was done according to the instructions of the manufacturer (CellTiter-Glo™ Luminescent Cell Viability Assay, from Promega). In brief: the cell-plate was equilibrated to room temperature for approximately 30 minutes and than the CellTiter-Glo™ reagent was added. The contents were carefully mixed for 15 minutes to induce cell lysis. After 45 minutes the luminescent signal was measured in Victor 2, (scanning multiwell spectrophotometer, Wallac).
• Medium: RPMI 1640 with GlutaMAX™ 1 (Invitrogen, Cat-No. 61870), 5% FCS (Sigma Cat.-No. F4135), Pen/Strep (Invitrogen, Cat No. 15140). • HCT116 (ATCC-No. CCl-247): 1000 cells in 60 μl per well of 384 well plate (Greiner 781098, μClear-plate white) • After seeding incubate plates 24 h at 37° C., 5% CO2 2nd. Day: Induction (Treatment with Compounds, 10 Concentrations):
In order to achieve a final concentration of 30 μM as highest concentration 3.5 μl of 10 mM compound stock solution were added directly to 163 μl media. Then step e) of the dilution procedure described below, was followed.
For orientation: In ATP-based viability assays light output follows the ATP content of the culture.

T2 sequence (P05480 whole entry): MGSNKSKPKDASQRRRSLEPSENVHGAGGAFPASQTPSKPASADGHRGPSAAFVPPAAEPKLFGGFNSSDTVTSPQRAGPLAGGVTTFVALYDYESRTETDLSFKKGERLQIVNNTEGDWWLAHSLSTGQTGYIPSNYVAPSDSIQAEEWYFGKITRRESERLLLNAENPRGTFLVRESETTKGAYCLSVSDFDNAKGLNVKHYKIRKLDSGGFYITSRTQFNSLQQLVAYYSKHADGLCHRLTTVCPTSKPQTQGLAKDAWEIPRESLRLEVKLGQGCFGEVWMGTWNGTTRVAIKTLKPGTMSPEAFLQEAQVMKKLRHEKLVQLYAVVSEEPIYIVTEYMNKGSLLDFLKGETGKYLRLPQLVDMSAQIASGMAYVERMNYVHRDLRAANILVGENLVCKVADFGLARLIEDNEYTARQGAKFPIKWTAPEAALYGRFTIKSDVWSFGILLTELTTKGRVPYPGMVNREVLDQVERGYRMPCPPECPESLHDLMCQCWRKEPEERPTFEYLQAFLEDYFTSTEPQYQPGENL
human recombinant PDGFR beta, sequence (P09619 33-1106): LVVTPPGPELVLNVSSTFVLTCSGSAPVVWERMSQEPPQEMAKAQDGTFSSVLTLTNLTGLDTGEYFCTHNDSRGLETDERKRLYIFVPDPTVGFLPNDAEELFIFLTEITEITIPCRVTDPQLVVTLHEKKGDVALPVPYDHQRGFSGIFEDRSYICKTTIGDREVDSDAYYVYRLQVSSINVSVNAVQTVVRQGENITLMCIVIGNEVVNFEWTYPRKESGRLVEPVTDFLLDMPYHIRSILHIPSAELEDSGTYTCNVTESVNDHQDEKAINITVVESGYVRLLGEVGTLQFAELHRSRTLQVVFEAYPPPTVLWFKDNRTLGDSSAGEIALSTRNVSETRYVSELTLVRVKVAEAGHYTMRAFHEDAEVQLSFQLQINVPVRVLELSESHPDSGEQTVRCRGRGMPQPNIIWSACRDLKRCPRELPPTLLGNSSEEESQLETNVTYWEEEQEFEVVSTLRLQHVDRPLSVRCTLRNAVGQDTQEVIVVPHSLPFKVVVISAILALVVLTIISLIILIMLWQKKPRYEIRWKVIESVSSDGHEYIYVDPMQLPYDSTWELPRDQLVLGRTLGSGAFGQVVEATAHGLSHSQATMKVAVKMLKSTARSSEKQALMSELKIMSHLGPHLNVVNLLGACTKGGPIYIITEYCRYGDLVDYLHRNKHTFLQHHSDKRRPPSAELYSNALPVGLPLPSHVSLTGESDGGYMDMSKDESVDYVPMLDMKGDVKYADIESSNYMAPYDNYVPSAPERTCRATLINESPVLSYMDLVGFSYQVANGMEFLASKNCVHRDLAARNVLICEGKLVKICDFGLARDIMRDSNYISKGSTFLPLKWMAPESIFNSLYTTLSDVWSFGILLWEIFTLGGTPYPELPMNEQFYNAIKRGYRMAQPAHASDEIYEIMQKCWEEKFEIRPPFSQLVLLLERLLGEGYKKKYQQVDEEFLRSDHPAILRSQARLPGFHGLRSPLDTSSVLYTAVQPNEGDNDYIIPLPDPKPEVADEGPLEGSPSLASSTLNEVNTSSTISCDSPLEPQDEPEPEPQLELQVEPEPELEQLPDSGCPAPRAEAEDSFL
T1 sequence (P00520 27-1123 limits assumed): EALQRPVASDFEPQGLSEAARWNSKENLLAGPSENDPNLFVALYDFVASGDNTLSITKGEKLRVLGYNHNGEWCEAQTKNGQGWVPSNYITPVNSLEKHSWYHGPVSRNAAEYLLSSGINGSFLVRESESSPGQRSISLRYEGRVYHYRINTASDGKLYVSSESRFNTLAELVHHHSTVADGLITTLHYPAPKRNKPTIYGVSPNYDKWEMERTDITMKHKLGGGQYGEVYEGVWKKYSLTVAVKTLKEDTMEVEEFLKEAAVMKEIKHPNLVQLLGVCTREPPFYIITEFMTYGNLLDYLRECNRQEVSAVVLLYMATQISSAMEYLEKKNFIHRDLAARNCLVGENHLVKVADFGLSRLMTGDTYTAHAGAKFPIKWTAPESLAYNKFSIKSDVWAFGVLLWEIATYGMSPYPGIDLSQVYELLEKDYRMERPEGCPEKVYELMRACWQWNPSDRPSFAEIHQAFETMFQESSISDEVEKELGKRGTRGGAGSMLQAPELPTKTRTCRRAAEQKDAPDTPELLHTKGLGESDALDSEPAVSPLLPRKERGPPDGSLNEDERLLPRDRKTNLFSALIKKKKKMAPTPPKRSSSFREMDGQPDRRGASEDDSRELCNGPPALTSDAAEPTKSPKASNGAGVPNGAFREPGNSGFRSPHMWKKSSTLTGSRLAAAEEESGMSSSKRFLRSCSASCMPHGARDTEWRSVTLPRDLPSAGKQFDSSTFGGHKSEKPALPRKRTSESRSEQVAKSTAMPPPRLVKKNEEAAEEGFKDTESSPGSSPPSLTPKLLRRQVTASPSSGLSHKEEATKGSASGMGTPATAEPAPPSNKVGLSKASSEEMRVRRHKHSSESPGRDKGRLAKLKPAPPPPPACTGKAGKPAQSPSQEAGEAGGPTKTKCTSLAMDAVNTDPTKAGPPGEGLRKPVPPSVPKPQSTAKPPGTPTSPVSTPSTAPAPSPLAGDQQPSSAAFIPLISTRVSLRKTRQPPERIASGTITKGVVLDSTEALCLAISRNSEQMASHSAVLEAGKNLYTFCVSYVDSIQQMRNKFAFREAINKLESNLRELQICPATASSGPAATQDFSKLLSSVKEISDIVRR

Usually IC50 stands for the point on the concentration scale where inhibition reaches its midpoint. With `O=C(Nc1ccc(Cl)c(C(=O)Nc2cnc3[nH]ccc3c2)c1)c1cccc(-c2ccccc2)c1` [Example 2-1, Biphenyl-3-carboxylic acid[4-chloro-3-(1H-pyrrolo[2,3-b]pyridin-5-ylcarbamoyl)-phenyl]-amide], the IC50 was 5 to 1000 nM in test [1], 5 to 1000 nM in test [2], 14 nM in test [3] and 100 to 10000 nM in the test with HCT 116 cells.
For `O=C(Nc1ccc(Cl)c(C(=O)Nc2cnc3[nH]ccc3c2)c1)c1ccc(-c2ccccc2)cc1` [Example 2-2, Biphenyl-4-carboxylic acid [4-chloro-3-(1H-pyrrolo[2,3-b]pyridin-5-ylcarbamoyl)-phenyl]-amide], the IC50 is 63 nM in test [1], 5 to 1000 nM in test [2], 10 to 1000 nM in test [3] and 100 to 10000 nM in the test with HCT 116 cells.
For the compound `O=C(Nc1ccc(Cl)c(C(=O)Nc2cnc3[nH]ccc3c2)c1)c1ccc(N2CCOCC2)cc1` [Example 2-3, 2-Chloro-5-(4-morpholin-4-yl-benzoylamino)-N-(1H-pyrrolo[2,3-b]pyridin-5-yl)-benzamide], the IC50 in test [1] is 5 to 1000 nM; in test [2], 189 nM; in test [3], 10 to 1000 nM; in the test with HCT 116 cells it was 100 to 10000 nM.
